Test results from patent US20100297073A1, “HETEROCYCLIC ANTIVIRAL COMPOUNDS” (priority 2009, published 2010).

Legend:
[1] = target: T1, HCV polymerase (NS5B570n-Con1) (Hepatitis C virus genotype 1b, UniProt Q9WMX2); assay: biochemical; parameters: species or system HCV Con1 strain
T1 construct: contains a 21 amino acid deletion at the C-terminus relative to the full-length HCV polymerase; 6-histidine (N); made in house; host or cells: E. coli BL21(DE) pLysS, plasmid pET17b
Protocol: HCV NS5B RNA Polymerase Activity
The enzymatic activity of HCV polymerase (NS5B570n-Con1) was measured as the incorporation of radiolabeled nucleotide monophosphates into acid insoluble RNA products. Unincorporated radiolabeled substrate was removed by filtration and scintillant was added to the washed and dried filter plate containing radiolabeled RNA product. The amount of RNA product generated by NS5B570-Con1 at the end of the reaction was directly proportional to the amount of light emitted by the scintillant.
The N-terminal 6-histidine tagged HCV polymerase, derived from HCV Con1 strain, genotype 1b (NS5B570n-Con1) contains a 21 amino acid deletion at the C-terminus relative to the full-length HCV polymerase and was purified from E. coli strain BL21(DE) pLysS. The construct, containing the coding sequence of HCV NS5B Con1 (GenBank accession number AJ242654) was inserted into the plasmid construct pET17b, downstream of a T7 promoter expression cassette and transformed into E. coli. A single colony was grown overnight as a starter culture and later used inoculate 10 L of LB media supplemented with 100 μg/mL ampicillin at 37° C. Protein expression was induced by the addition of 0.25 mM isopropyl-β-D-thiogalactopyranoside (IPTG) when optical density at […] of the culture was between 0.6 and 0.8 and cells were harvested after 16 to 18 h at 30° C. NS5B570n-Con1 was purified to homogeneity using a three-step protocol including subsequent column chromatography on Ni-NTA, SP-Sepharose HP and Superdex 75 resins.
Data was analyzed in Excel® (Microsoft®) and ActivityBase® (idbs®). The reaction in the absence of enzyme was used to determine the background signal, which was subtracted from the enzymatic reactions. […] All data was expressed as a percentage of the positive control.
the data where “Y” corresponds to the relative enzyme activity (in %), “% Min” is the residual relative activity at saturating compound concentration, “% Max” is the relative maximum enzymatic activity, “X” corresponds to the compound concentration, and “S” is the Hill coefficient (or slope).

[2] = test system: genotype 1b HCV replicon in Huh7 cell line 2209-23; assay: HCV replicon assay (Renilla luciferase reporter); assay type: cell-based; conditions: Hepatitis C virus, Huh-7, 72 h; 2209-23 cells, three days incubation, luciferase readout
in vitro = conditions: human
HCV = conditions: cited from earlier work

COc1c(-c2cc3ccccc3c(=O)[nH]2)cc(-c2ccc[nH]c2=O)cc1C(C)(C)C
melting point: 138 to 140 °C

COc1ccc(-c2cc(-c3cc4ccc(NS(C)(=O)=O)cc4c(=O)o3)c(OC)c(C(C)(C)C)c2)c(=O)[nH]1
melting point: 231 to 233 °C

COc1c(-c2cc(=O)c3cc(NS(C)(=O)=O)ccc3o2)cc(-c2ccc[nH]c2=O)cc1C(C)(C)C [Compound I-1, N-{2-[3-tert-Butyl-2-methoxy-5-(2-oxo-1,2-dihydro-pyridin-3-yl)-phenyl]-4-oxo-4H-chromen-6-yl}-methanesulfonamide]
melting point: > 300 °C
IC50 [1]: 3 nM

COc1c(C2=CCc3cc(NS(C)(=O)=O)ccc3O2)cc(-c2ccc[nH]c2=O)cc1C(C)(C)C [Compound I-2, N-{2-[3-tert-Butyl-2-methoxy-5-(2-oxo-1,2-dihydro-pyridin-3-yl)-phenyl]-4H-chromen-6-yl}-methanesulfonamide]
IC50 [1]: 14 nM

COc1c(C2CCc3cc(NS(C)(=O)=O)ccc3O2)cc(-c2ccc[nH]c2=O)cc1C(C)(C)C (centres unmarked) [Compound I-3, N-{2-[3-tert-Butyl-2-methoxy-5-(2-oxo-1,2-dihydro-pyridin-3-yl)-phenyl]-chroman-6-yl}-methanesulfonamide]
IC50 [1]: 1 nM

CC(C)(C)c1cc(-c2cc3ccc(NS(C)(=O)=O)cc3c(=O)o2)cc(-c2ccc[nH]c2=O)c1 [Compound I-5, N-{3-[3-tert-Butyl-5-(2-oxo-1,2-dihydro-pyridin-3-yl)-phenyl]-1-oxo-1H-isochromen-7-yl}-methanesulfonamide]
melting point: > 300 °C
IC50 [1]: 9 nM

COc1c(-c2cc3ccc(NS(C)(=O)=O)cc3c(=O)o2)cc(-c2cc(F)c[nH]c2=O)cc1C(C)(C)C [Compound I-6, N-{3-[3-tert-Butyl-5-(5-fluoro-2-oxo-1,2-dihydro-pyridin-3-yl)-2-methoxy-phenyl]-1-oxo-1H-isochromen-7-yl}-methanesulfonamide]
melting point: 295 to 297 °C
IC50 [1]: 3 nM

COc1c(-c2cc3ccccc3c(=O)o2)cc(-c2ccc[nH]c2=O)cc1C(C)(C)C [Compound I-7, 3-[3-tert-Butyl-4-methoxy-5-(1-oxo-1H-isochromen-3-yl)-phenyl]-1H-pyridin-2-one]
melting point: 253 to 255 °C
IC50 [1]: 2 nM

COc1c(C2Cc3ccc(NS(C)(=O)=O)cc3C(=O)O2)cc(-c2ccc[nH]c2=O)cc1C(C)(C)C (centres unmarked) [Compound I-9, N-{3-[3-tert-Butyl-2-methoxy-5-(2-oxo-1,2-dihydro-pyridin-3-yl)-phenyl]-1-oxo-isochroman-7-yl}-methanesulfonamide]
IC50 [1]: 6 nM

COc1c(C2Cc3ccc(NS(C)(=O)=O)cc3CO2)cc(-c2ccc[nH]c2=O)cc1C(C)(C)C (centres unmarked) [Compound I-10, N-{3-[3-tert-Butyl-2-methoxy-5-(2-oxo-1,2-dihydro-pyridin-3-yl)-phenyl]-isochroman-7-yl}-methanesulfonamide]
melting point: 170 to 175 °C
IC50 [1]: 1 nM

COc1c(-c2cc3ccc(NS(C)(=O)=O)cc3c(=O)[nH]2)cc(-c2ccc[nH]c2=O)cc1C(C)(C)C [Compound I-11, N-{3-[3-tert-Butyl-2-methoxy-5-(2-oxo-1,2-dihydro-pyridin-3-yl)-phenyl]-1-oxo-1,2-dihydro-isoquinolin-7-yl}-methanesulfonamide]
melting point: 252 to 254 °C
IC50 [2]: 1 nM
IC50 [1]: 4 nM
CC50 (in vitro): 42600 nM

COc1c(-c2nc3ccc(NS(C)(=O)=O)cc3c(=O)[nH]2)cc(-c2ccc[nH]c2=O)cc1C(C)(C)C [Compound I-13, N-{2-[3-tert-Butyl-2-methoxy-5-(2-oxo-1,2-dihydro-pyridin-3-yl)-phenyl]-4-oxo-3,4-dihydro-quinazolin-6-yl}-methanesulfonamide]
melting point: 228 to 230 °C
IC50 [1]: 9 nM

COc1c(-c2cc3ccc(NS(C)(=O)=O)cc3c(=O)o2)cc(-c2c[nH]c(=O)[nH]c2=O)cc1C(C)(C)C [Compound I-14, N-{3-[3-tert-Butyl-5-(2,4-dioxo-1,2,3,4-tetrahydro-pyrimidin-5-yl)-2-methoxy-phenyl]-1-oxo-1H-isochromen-7-yl}-methanesulfonamide]
melting point: > 300 °C
IC50 [1]: 1 nM

COc1c(-c2cc3ccc(NS(C)(=O)=O)cc3c(=O)o2)cc(-c2cc(F)c[nH]c2=O)cc1C1(C(F)F)CC1 [Compound I-15]
IC50 [1]: 0.2 nM

NC(=O)c1ncn([C@@H]2O[C@H](CO)[C@@H](O)[C@H]2O)n1 [Ribavirin, 1-((2R,3R,4S,5R)-3,4-Dihydroxy-5-hydroxymethyl-tetrahydro-furan-2-yl)-1H-[1,2,4]triazole-3-carboxylic acid amide]
effect on serum levels of HCV-RNA (HCV; monotherapy / sole treatment): does not lower serum levels of HCV-RNA
patients with serum amino transferase levels reduced to normal (HCV; monotherapy): 40%
